Some test systems named below: IGROV-1; SF-268; A549; OVCAR-5; RPMI-8226; KM12; CAKI-1; SK-OV-3; NCI-H522; HCC 2998; SNB-75; COLO 205; UO-31; UACC-257; NCI-H460; OVCAR-8; HOP-62; NCI-H23; SK-MEL-28; OVCAR-3.
What all share (experiment): NCI-60 cell line screen, 48 h

This is an account of results in ChEMBL document CHEMBL1201862, “PubChem BioAssay data set” (2004).

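Cells were grown in 96-well plates and exposed to each compound for 48 hours at five concentrations; endpoints were interpolated linearly between bracketing concentrations, or set to the highest concentration if not reached. Here, GI50 denotes the concentration required for 50% inhibition of growth.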 Calls of active or inactive are those of the source. Rule as the data show it: active = GI50 up to about 1.1 µM and inactive = higher.

On to `O=C(c1ccccc1)c1ccc2c(c1)N=C(c1ccc(Cl)c(Cl)c1)CC(c1ccc3ccccc3c1)N2` (configuration not stated), for which the GI50 is > 100 µM (inactive) in the test on IGROV-1; > 100 µM (inactive) in the test on SF-268; > 100 µM (inactive) with A549; > 100 µM (inactive) with OVCAR-5; 99.8 µM (inactive) in the test on RPMI-8226; > 100 µM (inactive) with KM12. Also, the GI50 in the test on CAKI-1, in the test with SK-OV-3, in the test with NCI-H522, with HCC 2998, with SNB-75 and with COLO 205 was > 100 µM (inactive) each time. Further, the GI50 with UO-31, with UACC-257, in the test with NCI-H460, in the test with OVCAR-8, in the test on HOP-62 and in the test with NCI-H23 was > 100 µM (inactive) throughout. For the same compound, the GI50 in the test with SK-MEL-28 is > 100 µM (inactive).
Regarding `COc1nc2ccc(Cl)c(C(O)c3ccccc3)c2nc1OC` (configuration not stated), the GI50 is 24.8 µM (inactive) in the test on IGROV-1; 23.4 µM (inactive) in the test with SF-268; 23.8 µM (inactive) with A549; 29 µM (inactive) with OVCAR-5; 14.1 µM (inactive) in the test on RPMI-8226; 29.9 µM (inactive) in the test with KM12. In addition, the GI50 in the test on CAKI-1 was 12.1 µM (inactive); with NCI-H522, 15.7 µM (inactive); with SNB-75, 33 µM (inactive); with COLO 205 it was 18.1 µM (inactive); with UO-31, 22.1 µM (inactive); in the test with UACC-257, 24.6 µM (inactive). Moreover, the GI50 with OVCAR-3 is 24.1 µM (inactive); in the test with NCI-H460 it was 25.8 µM (inactive); with OVCAR-8 it was 29 µM (inactive); with HOP-62, 16.5 µM (inactive); in the test on NCI-H23 it was 17.2 µM (inactive); with SK-MEL-28, 35.5 µM (inactive).
Regarding `Nc1nc(=O)n(C2OC(CO)C(O)C2O)cc1F` (configuration not stated), the GI50 with IGROV-1 is > 100 µM (inactive); in the test on SF-268, 2.75 µM (inactive); with A549 it was 0.255 µM (active); in the test on OVCAR-5, 0.855 µM (active); in the test with RPMI-8226 it was > 100 µM (inactive); in the test with KM12, > 100 µM (inactive). For the same compound, the GI50 in the test with CAKI-1 was 1.65 µM (inactive); in the test on SK-OV-3, > 100 µM (inactive); in the test with NCI-H522 it was 0.785 µM (active); in the test with HCC 2998, > 100 µM (inactive); in the test with COLO 205 it was 79.4 µM (inactive); in the test with UO-31, 10.3 µM (inactive). Moreover, the GI50 with UACC-257 was 3.78 µM (inactive); with OVCAR-3 it was > 100 µM (inactive); in the test on NCI-H460, 0.102 µM (active); in the test on OVCAR-8, 0.222 µM (active); in the test with HOP-62 it was 0.228 µM (active); in the test on NCI-H23, 0.191 µM (active).
Consider `C=CCCC1(C)CCCNC1=S` (configuration not stated), for which the GI50 in the test on IGROV-1, in the test with A549, in the test on OVCAR-5, in the test with RPMI-8226, in the test on KM12 and in the test with SK-OV-3 was > 100 µM (inactive) throughout. Besides, the GI50 in the test on HCC 2998 was > 100 µM (inactive); in the test with SNB-75, > 100 µM (inactive); with COLO 205, 37.7 µM (inactive); in the test with UO-31, > 100 µM (inactive); with UACC-257 it was > 100 µM (inactive); in the test with OVCAR-3, > 100 µM (inactive). Further, the GI50 in the test with NCI-H460, in the test with OVCAR-8, with HOP-62, in the test on NCI-H23 and with SK-MEL-28 was > 100 µM (inactive) each time.
In the case of `c1ccc(Sc2nc(Sc3ccccc3)nc(Sc3ccccc3)n2)cc1`, the GI50 in the test on SF-268 was 32 µM (inactive); in the test on A549 it was 28.5 µM (inactive); in the test with OVCAR-5 it was 58.7 µM (inactive); with RPMI-8226 it was 15.4 µM (inactive); with KM12 it was 13.9 µM (inactive); with CAKI-1, 38.9 µM (inactive). Further, the GI50 in the test on SK-OV-3 is > 100 µM (inactive); in the test with NCI-H522, 97.1 µM (inactive); in the test on HCC 2998, 18.1 µM (inactive); in the test with COLO 205, 18.6 µM (inactive); in the test with UO-31, 57 µM (inactive); in the test with UACC-257, 30.3 µM (inactive). For the same compound, the GI50 in the test on OVCAR-3 is 13.3 µM (inactive); in the test with NCI-H460, 47.6 µM (inactive); with HOP-62, 35.7 µM (inactive); in the test with NCI-H23, > 100 µM (inactive); in the test on SK-MEL-28, 43.7 µM (inactive).
For `O=CNc1cccc2c3c([nH]c12)CCCCCC3`, the GI50 in the test with IGROV-1 was 83.2 µM (inactive); in the test on SF-268, > 100 µM (inactive); with A549, > 100 µM (inactive); with OVCAR-5, > 100 µM (inactive); with KM12 it was > 100 µM (inactive); in the test with CAKI-1, 33 µM (inactive). Further, the GI50 in the test with SK-OV-3 was > 100 µM (inactive); in the test on NCI-H522, > 67.1 µM (inactive); in the test on HCC 2998, > 100 µM (inactive); in the test on SNB-75, > 93.1 µM (inactive); with COLO 205, > 100 µM (inactive); in the test with UO-31 it was > 82.4 µM (inactive). The GI50 was > 87.3 µM (inactive) with UACC-257; > 100 µM (inactive) in the test on OVCAR-3; > 100 µM (inactive) with NCI-H460; > 100 µM (inactive) with OVCAR-8; > 100 µM (inactive) in the test with HOP-62; > 100 µM (inactive) in the test on NCI-H23. Further, in the test with SK-MEL-28, the GI50 was > 100 µM (inactive).
As to `COc1ccc(-c2oc3cc(O)cc(O)c3c(=O)c2OC)cc1` [ERMANIN], the GI50 in the test on IGROV-1 was 28.3 µM (inactive); with SF-268 it was 22.1 µM (inactive); with A549, 34.9 µM (inactive); with OVCAR-5, > 100 µM (inactive); in the test on RPMI-8226, 15 µM (inactive); in the test with CAKI-1, 24.3 µM (inactive). Also, the GI50 with SK-OV-3 is 4.66 µM (inactive); with NCI-H522 it was 2.48 µM (inactive); in the test on HCC 2998 it was 26 µM (inactive); with COLO 205, 20.7 µM (inactive); with UO-31, 21.6 µM (inactive); in the test on UACC-257, 59.8 µM (inactive). Moreover, the GI50 in the test on OVCAR-3 is 21 µM (inactive); in the test on NCI-H460, 25.4 µM (inactive); in the test on OVCAR-8 it was 44.1 µM (inactive); in the test on HOP-62 it was 26.6 µM (inactive); in the test on SK-MEL-28, 27 µM (inactive).
For the compound `COc1ccc(C2C(C#N)=C(O)NC(O)=C2C#N)cc1OC`, the GI50 in the test with IGROV-1, with SF-268, in the test on A549, with OVCAR-5, in the test on RPMI-8226 and with KM12 was > 100 µM (inactive) each time. Moreover, the GI50 in the test with CAKI-1, in the test on SK-OV-3, in the test on NCI-H522, in the test with HCC 2998, in the test with SNB-75 and in the test with COLO 205 was > 100 µM (inactive) each time. Further, the GI50 with UO-31, with OVCAR-3, with OVCAR-8, in the test with HOP-62 and with SK-MEL-28 was > 100 µM (inactive) each time.
